Data taken from patent publication US20260132140A1, “IMIDAZOLYL-AMINO-PYRAZINE-CARBONITRILS AS CHK-1 INHIBITORS” (BenevolentAI Bio Limited, priority 2022, published 2026).

Legend:
[1] = biological target: T1, human Chk1 kinase (Homo sapiens, UniProt O14757); assay: biochemical
T1 sequence (O14757 1-476): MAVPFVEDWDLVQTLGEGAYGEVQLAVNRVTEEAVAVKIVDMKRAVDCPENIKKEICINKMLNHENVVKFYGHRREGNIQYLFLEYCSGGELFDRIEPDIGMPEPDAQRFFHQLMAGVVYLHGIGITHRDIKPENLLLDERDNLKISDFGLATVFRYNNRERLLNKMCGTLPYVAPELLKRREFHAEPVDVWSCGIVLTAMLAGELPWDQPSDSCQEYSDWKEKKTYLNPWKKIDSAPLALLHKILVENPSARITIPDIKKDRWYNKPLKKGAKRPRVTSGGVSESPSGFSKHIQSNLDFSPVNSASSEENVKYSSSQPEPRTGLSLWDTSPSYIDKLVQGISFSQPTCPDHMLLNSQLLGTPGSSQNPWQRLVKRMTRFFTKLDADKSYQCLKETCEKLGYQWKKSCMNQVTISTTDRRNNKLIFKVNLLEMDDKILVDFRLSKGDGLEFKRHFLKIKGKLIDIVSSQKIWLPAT

[2] = biological target: human Chk2 kinase (Homo sapiens, UniProt O96017); assay: biochemical
Sequence of human Chk2 kinase (O96017 whole entry): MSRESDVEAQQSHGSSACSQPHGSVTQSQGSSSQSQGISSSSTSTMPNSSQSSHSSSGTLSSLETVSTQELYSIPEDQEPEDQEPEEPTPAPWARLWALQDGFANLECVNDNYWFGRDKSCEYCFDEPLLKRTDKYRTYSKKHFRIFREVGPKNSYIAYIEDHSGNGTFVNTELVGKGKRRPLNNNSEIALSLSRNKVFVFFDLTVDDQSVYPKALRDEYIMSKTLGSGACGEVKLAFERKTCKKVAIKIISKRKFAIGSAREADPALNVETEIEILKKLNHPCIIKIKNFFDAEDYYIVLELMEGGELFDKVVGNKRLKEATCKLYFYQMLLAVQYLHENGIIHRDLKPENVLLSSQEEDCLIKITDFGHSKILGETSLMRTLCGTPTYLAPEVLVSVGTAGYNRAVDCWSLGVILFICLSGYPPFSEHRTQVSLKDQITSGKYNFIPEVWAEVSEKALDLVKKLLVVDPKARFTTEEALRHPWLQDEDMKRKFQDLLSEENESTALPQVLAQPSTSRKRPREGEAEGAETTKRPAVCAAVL

IC50 [1] [nM]	IC50 [2] [nM]	SMILES
100 to 316	10000 to 100000	CN1C[C@H](F)[C@H](Oc2cccc(-n3cnc(Nc4cnc(C#N)cn4)c3)c2)C1 [Example 56, 5-((1-(3-(((3R,4S)-4-fluoro-1-methylpyrrolidin-3-yl)oxy)phenyl)-1H-imidazol-4-yl)amino)pyrazine-2-carbonitrile]
10 to 31.6	10000 to 100000	C[C@@H]1CN(C)CCN1c1ccc(-n2cnc(Nc3cnc(C#N)cn3)c2)cc1 [Example 16, (R)-5-((1-(4-(2,4-Dimethylpiperazin-1-yl)phenyl)-1H-imidazol-4-yl)amino)pyrazine-2-carbonitrile]
10 to 31.6	10000 to 100000	CN1CCC12CCN(c1ccc(-n3cnc(Nc4cnc(C#N)cn4)c3)cc1)CC2 [Example 100, 5-((1-(4-(1-Methyl-1,7-diazaspiro[3.5]nonan-7-yl)phenyl)-1H-imidazol-4-yl)amino)pyrazine-2-carbonitrile]
31.6 to 100	10000 to 100000	CN1CCOC(c2ccc(-n3cnc(Nc4cnc(C#N)cn4)c3)cc2)C1 (single isomer, unassigned) [Example 105, 5-((1-(4-(4-Methylmorpholin-2-yl)phenyl)-1H-imidazol-4-yl)amino)pyrazine-2-carbonitrile]
10 to 31.6	10000 to 100000	CN1C[C@H]2C[C@@H]1CN2c1ccc(-n2cnc(Nc3cnc(C#N)cn3)c2)cc1 [Example 9, 5-((1-(4-((1R,4R)-5-Methyl-2,5-diazabicyclo[2.2.1]heptan-2-yl)phenyl)-1H-imidazol-4-yl)amino)pyrazine-2-carbonitrile]
31.6 to 100	10000 to 100000	CN1CC2(CC(Oc3ccc(-n4cnc(Nc5cnc(C#N)cn5)c4)cc3)C2)C1 [Example 178, 5-((1-(4-((2-Methyl-2-azaspiro[3.3]heptan-6-yl)oxy)phenyl)-1H-imidazol-4-yl)amino)pyrazine-2-carbonitrile]
< 10	> 100000	CN(C)C1CCCN(c2ccc(-n3cnc(Nc4cnc(C#N)cn4)c3)cc2)C1 (single isomer, unassigned) [Example 121, 5-((1-(4-(3-(Dimethylamino)piperidin-1-yl)phenyl)-1H-imidazol-4-yl)amino)pyrazine-2-carbonitrile]
31.6 to 100	> 100000	CN1C[C@H](OCc2ccc(-n3cnc(Nc4cnc(C#N)cn4)c3)cc2)[C@@H](F)C1 [Example 24, 5-((1-(4-((((3S,4S)-4-Fluoro-1-methylpyrrolidin-3-yl)oxy)methyl)phenyl)-1H-imidazol-4-yl)amino)pyrazine-2-carbonitrile]
10 to 31.6	10000 to 100000	CN1CC[C@@H]2CN(c3ccc(-n4cnc(Nc5cnc(C#N)cn5)c4)cc3)C[C@@H]21 [Example 87, 5-((1-(4-((3aR,6aR)-1-Methylhexahydropyrrolo[3,4-b]pyrrol-5(1H)-yl)phenyl)-1H-imidazol-4-yl)amino)pyrazine-2-carbonitrile]
31.6 to 100	10000 to 100000	C[C@H]1CN(C)CCN1c1ccc(-n2cnc(Nc3cnc(C#N)cn3)c2)cc1 [Example 17, (S)-5-((1-(4-(2,4-Dimethylpiperazin-1-yl)phenyl)-1H-imidazol-4-yl)amino)pyrazine-2-carbonitrile]
10 to 31.6	10000 to 100000	CN1C[C@@H]2C[C@H]1CN2c1ccc(-n2cnc(Nc3cnc(C#N)cn3)c2)cc1 [Example 10, 5-((1-(4-((1S,4S)-5-Methyl-2,5-diazabicyclo[2.2.1]heptan-2-yl)phenyl)-1H-imidazol-4-yl)amino)pyrazine-2-carbonitrile]

Further lines, the compound ahead of its results:

SMILES	IC50 [1] [nM]	IC50 [2] [nM]
CN(C)C[C@@H]1CCCN1c1ccc(-n2cnc(Nc3cnc(C#N)cn3)c2)cc1 [Example 66, (S)-5-((1-(4-(2-((Dimethylamino)methyl)pyrrolidin-1-yl)phenyl)-1H-imidazol-4-yl)amino)pyrazine-2-carbonitrile]	31.6 to 100	10000 to 100000
CN(C)[C@H]1CN(c2ccc(-n3cnc(Nc4cnc(C#N)cn4)c3)cc2)C[C@@H]1F [Example 63, 5-((1-(4-((3S,4S)-3-(Dimethylamino)-4-fluoropyrrolidin-1-yl)phenyl)-1H-imidazol-4-yl)amino)pyrazine-2-carbonitrile]	< 10	1000 to 10000
CC(C)(C)N1CC(Oc2ccc(-n3cnc(Nc4cnc(C#N)cn4)c3)cc2)C1 [Example 45, 5-((1-(4-((1-(tert-Butyl)azetidin-3-yl)oxy)phenyl)-1H-imidazol-4-yl)amino)pyrazine-2-carbonitrile]	10 to 31.6	10000 to 100000
CN1CC[C@@H]2[C@H]1CCN2c1ccc(-n2cnc(Nc3cnc(C#N)cn3)c2)cc1 [Example 91, 5-((1-(4-((3aR,6aR)-4-Methylhexahydropyrrolo[3,2-b]pyrrol-1(2H)-yl)phenyl)-1H-imidazol-4-yl)amino)pyrazine-2-carbonitrile]	10 to 31.6	10000 to 100000
CN(C)[C@H]1CN(c2ccc(-n3cnc(Nc4cnc(C#N)cn4)c3)cc2)C[C@H]1F [Example 62, 5-((1-(4-((3S,4R)-3-(Dimethylamino)-4-fluoropyrrolidin-1-yl)phenyl)-1H-imidazol-4-yl)amino)pyrazine-2-carbonitrile]	10 to 31.6	1000 to 10000
CN1CCN(c2ccc(-n3cnc(Nc4cnc(C#N)cn4)c3)cc2)CC1(C)C [Example 97, 5-((1-(4-(3,3,4-Trimethylpiperazin-1-yl)phenyl)-1H-imidazol-4-yl)amino)pyrazine-2-carbonitrile]	31.6 to 100	10000 to 100000
CN1CC2(CCN2c2ccc(-n3cnc(Nc4cnc(C#N)cn4)c3)cc2)C1 [Example 99, 5-((1-(4-(6-Methyl-1,6-diazaspiro[3.3]heptan-1-yl)phenyl)-1H-imidazol-4-yl)amino)pyrazine-2-carbonitrile]	10 to 31.6	10000 to 100000
CN1CCN(c2ccc(-n3cnc(Nc4cnc(C#N)cn4)c3)cn2)CC1 [Example 19, 5-((1-(6-(4-Methylpiperazin-1-yl)pyridin-3-yl)-1H-imidazol-4-yl)amino)pyrazine-2-carbonitrile]	100 to 316	10000 to 100000
Cc1ccc(-n2cnc(Nc3cnc(C#N)cn3)c2)cc1N1CC[C@@H](N(C)C)C1 [Example 58, (R)-5-((1-(3-(3-(Dimethylamino)pyrrolidin-1-yl)-4-methylphenyl)-1H-imidazol-4-yl)amino)pyrazine-2-carbonitrile]	31.6 to 100	10000 to 100000
COc1cc(CN2CC[C@@H](F)C2)ccc1-n1cnc(Nc2cnc(C#N)cn2)c1 [Example 169]	10 to 31.6	10000 to 100000
COc1cc(N(C)C2CCN(C)CC2)ccc1-n1cnc(Nc2cnc(C#N)cn2)c1 [Example 14, 5-((1-(2-Methoxy-4-(methyl(1-methylpiperidin-4-yl)amino)phenyl)-1H-imidazol-4-yl)amino)pyrazine-2-carbonitrile]	10 to 31.6	10000 to 100000
N#Cc1cnc(Nc2cn(-c3ccc(N4CC5(CCN5)C4)cc3)cn2)cn1 [Example 160, 5-((1-(4-(1,6-Diazaspiro[3.3]heptan-6-yl)phenyl)-1H-imidazol-4-yl)amino)pyrazine-2-carbonitrile]	10 to 31.6	1000 to 10000
N#Cc1cnc(Nc2cn(-c3ccc(N4CC(F)(CN)C4)cc3)cn2)cn1 [Example 159, 5-((1-(4-(3-(Aminomethyl)-3-fluoroazetidin-1-yl)phenyl)-1H-imidazol-4-yl)amino)pyrazine-2-carbonitrile]	10 to 31.6	1000 to 10000
COc1cc(NC2CCN(C)CC2)ccc1-n1cnc(Nc2cnc(C#N)cn2)c1 [Example 13, 5-((1-(2-Methoxy-4-((1-methylpiperidin-4-yl)amino)phenyl)-1H-imidazol-4-yl)amino)pyrazine-2-carbonitrile]	10 to 31.6	10000 to 100000
CN(C)C1CN(c2ccc(-n3cnc(Nc4cnc(C#N)cn4)c3)cc2)C1 [Example 32, 5-((1-(4-(3-(Dimethylamino)azetidin-1-yl)phenyl)-1H-imidazol-4-yl)amino)pyrazine-2-carbonitrile]	< 10	> 100000
N#Cc1cnc(Nc2cn(-c3cccc(N4CCN5CCC[C@H]5C4)c3)cn2)cn1 [Example 35, (S)-5-((1-(3-(Hexahydropyrrolo[1,2-a]pyrazin-2(1H)-yl)phenyl)-1H-imidazol-4-yl)amino)pyrazine-2-carbonitrile]	31.6 to 100	> 100000
CN(CCO)C1CCN(c2cccc(-n3cnc(Nc4cnc(C#N)cn4)c3)c2)C1 (single isomer, unassigned) [Example 109, 5-((1-(3-(3-((2-Hydroxyethyl)(methyl)amino)pyrrolidin-1-yl)phenyl)-1H-imidazol-4-yl)amino)pyrazine-2-carbonitrile]	10 to 31.6	> 100000
N#Cc1cnc(Nc2cn(-c3ccc(N4CCC(N5CCC5)C4)cc3)cn2)cn1 (single isomer, unassigned) [Example 114, 5-((1-(4-(3-(Azetidin-1-yl)pyrrolidin-1-yl)phenyl)-1H-imidazol-4-yl)amino)pyrazine-2-carbonitrile]	< 10	1000 to 10000
COc1cc(N2CC[C@@H](N3CCCC3)C2)ccc1-n1cnc(Nc2cnc(C#N)cn2)c1 [Example 51, (R)-5-((1-(4-([1,3′-Bipyrrolidin]-1′-yl)-2-methoxyphenyl)-1H-imidazol-4-yl)amino)pyrazine-2-carbonitrile]	< 10	1000 to 10000
